Test results published in patent US20240085429A1, “ALTERING PROTEIN FUNCTION BY PHARMACOLOGICAL TARGETING OF MEMBRANE DOMAINS” (University of Virginia Patent Foundation, priority 2021, published 2024).

Test system: GPMVs isolated from HeLa cells
Experiment: High-throughput screen of the Cayman bioactive lipid library for effects on GPMV phase behavior (% phase separated vesicles, NBD-DSPE phase preference)
Set-up: species or system human
Conditions: HeLa GPMVs, RT; for Effect on Pang(ϕ): NBD-DSPE raft phase preference; for Effect on Pang(ϕ) / % phase separated z-score / Pordered z-score: final 1 μM; for % phase separated z-score / Pordered z-score: Table 4; for Pordered z-score: NBD-DSPE; for Effect on % phase separated vesicles: final drug concentration 1 μM, NBD-DSPE channel
Method: This approach is not practical for high throughput screening applications, which typically are performed at a single temperature. Changes in the percentage of phase-separated GPMVs were monitored at a single temperature in response to the addition of small molecules as a surrogate for measuring Tmisc directly (FIG. 1A). This approach requires that a significant fraction of GPMVs are phase separated under control conditions, such that experimentally-induced changes can be readily detected.
In phase separated vesicles these markers are enriched in their preferred domains, such that a given vesicle contains a co-existing NBD-DSPE-rich phase and a DiD-rich phase. In contrast, NBD-DSPE and DiD colocalize in a single uniform phase in GPMVs that are not phase separated. We also optimized conditions to isolate and plate GPMVs in multi-well plates.
To provide proof-of-concept, the Cayman lipid library containing ˜850 bioactive lipid-like compounds in the Vanderbilt High-throughput Screening Facility was screened, using […] of each compound across three independent screens. All screens were carried out using an automated microscope/high-content imaging system and robotic plate handler at RT. […] Compounds were initially scored based on their capacity to alter the percentage of phase separated vesicles (FIG. 2A).
HeLa cells were obtained from ATCC (cat #CCL-2) and cultured at 37° C. in 5% CO2 in a humidified tissue culture incubator. […] In brief, cells were plated in 150 mm tissue culture dishes the day before the experiment, to yield a confluence of 70-80% the day of the experiment. To generate GPMVs, cells were rinsed twice in 10 ml of GPMV buffer (2 mM DTT, 25 mM formaldehyde, 150 mM NaCl, 10 mM HEPES, 2 mM CaCl2), pH=7.4) and subsequently incubated in 12 ml of GPMV buffer at 37° C. with gentle shaking at 70 rpm for 1.5 h. The raft marker NBD-DSPE (1,2-distearoyl-sn-glycero-3-phosphoethanolamine-N-(7-nitro-2-1,3-benzoxadiazol-4-yl; Avanti Polar Lipids) and the non-raft marker DiD (1,1′-dioctadecyl-3,3,3′,3′-tetramethylindodicarbocyanine perchlorate; cat #D307 Thermo Scientific) were added from stock solutions in ethanol to the GPMV suspension at final concentrations of 5-6 μg/ml and 1 μg/ml, respectively, for the initial screenings. For some experiments, cells were prelabelled with 5 μg/ml DiD for 8 min at 4° C. and washed several times prior to GPMVs generation. Screening was performed the same day that GPMVs were generated.
[…] GPMVs suspension in GPMV buffer was then added to each well of a 96-well plate to obtain a final drug concentration of 1 μM. The GPMVs were allowed to settle to the bottom of the plates for 1.5 h prior to imaging. Samples were prepared and imaged at RT. The screen was repeated on three different days using three separately prepared batches of GPMVs (3 biological replicates).
Image acquisition was performed with an ImageXpress Micro XL automated microscope (Molecular Devices) using a Nikon 40X 0.6 NA Super Plan Fluor ELWD objective and a Lumencor Sola solid-state light source. Laser autofocus was employed at each site to obtain the best focus z-plane for each channel. […] Sixteen sites were captured per well using a 4.2 MP widefield scientific cMOS camera with a camera binning of 1. Each plate took approximately 1.3 h to image. Multiple plates were loaded to a plate carousel (ThermoScientific), shuttled to/from the ImageXpress via a ThermoScientific CRS F3 robot arm, and automatically run through the Momentum scheduling software (Thermo). To analyze the data, images and metadata were exported as TIFF files and subjected to image analysis using a custom MATLAB-based program as described below.

## CCCCCCCCCCCCCCCCOC[C@H](COP(=O)([O-])OCC[N+](C)(C)C)OC [2-O-methyl PAF C-16, 1-O-hexadecyl-2-O-methyl-sn-glyceryl-3-phosphorylcholine]
  Effect on Pang(ϕ): ↑
  % phase separated z-score: −1.06
  Pordered z-score: 2.68

## CCCCCCCCCCCCCCCCOCC(COP(=O)([O-])OCC[N+](C)(C)C)SC(C)=O (stereo not shown) [2-thio-PAF, 1-O-hexadecyl-2-deoxy-2-thio-S-acetyl-sn-glyceryl-3-phosphorylcholine]
  Effect on % phase separated vesicles: ↓
  % phase separated z-score: −3.15
  Pordered z-score: −0.72

## Cl.c1cc(N2CCNCC2)c2cnccc2c1 [8-piperazin-1-yl-Isoquinoline (hydrochloride)]
  Effect on % phase separated vesicles: ↑
  % phase separated z-score: 2.14
  Pordered z-score: 1.61

## CCCCC/C=C\C/C=C\CCCCCCCCCC(=O)O [11(Z),14(Z)-Eicosadienoic Acid]
  Effect on % phase separated vesicles: ↓
  % phase separated z-score: −2.15
  Pordered z-score: −0.46

## CCCCCCCC/C=C\CCCCCCCC(=O)OC[C@@H](COP(O)(O)=S)OC.CCN(CC)CC.CCN(CC)CC [(2S)-OMPT, 9Z-octadecenoic acid, (2S)-3-[(hydroxymercaptophosphinyl)oxy]-2-methoxypropyl ester, triethyl ammonium salt (1:2)]
  Effect on % phase separated vesicles: ↓
  % phase separated z-score: −2.12
  Pordered z-score: −0.27

## CCCCC/C=C\C/C=C\C/C=C\C/C=C\CCCC(=O)NCCF [Arachidonoyl-2′-Fluoroethylamide]
  Effect on Pang(ϕ): ↑
  % phase separated z-score: 1.90
  Pordered z-score: 2.38

## CCCCCCCCCCCCC/C=C/[C@@H](O)[C@H](CO)NC(=O)CCCCCCC [C8 Ceramide (d18:1/8:0)]
  Effect on % phase separated vesicles: ↓
  % phase separated z-score: −2.87
  Pordered z-score: −0.72

## CCCCCCCCCCCC1NC(C(=O)O)CS1 (stereo not shown) [CAY10444, 2-undecyl-thiazolidine-4-carboxylic acid]
  Effect on Pang(ϕ): ↓
  % phase separated z-score: −1.61
  Pordered z-score: −2.04

## CC1(COc2ccc(CC3SC(=O)NC3=O)cc2)CCCCC1 (stereo not shown) [Ciglitazone]
  % phase separated z-score: −2.73
  Pordered z-score: −1.71

## COc1ccc(-c2nc(C(=O)N3CCN(C)CC3)sc2-c2ccc(OC)cc2)cc1.Cl [FR122047 (hydrochloride), 1-[[4,5-bis(4-methoxyphenyl)-2-thiazolyl]carbonyl]-4-methyl-piperazine, monohydrochloride]
  Effect on Pang(ϕ): ↓
  % phase separated z-score: 0.12
  Pordered z-score: −2.03

## CC(C)c1ccc2c(c1)c(SC(C)(C)C)c(CC(C)(C)C(=O)O)n2Cc1ccc(Cl)cc1 [MK-886, 1-[(4-chlorophenyl)methyl]-3-[(1,1-dimethylethyl)thio]-α,α-dimethyl-5-(1-methylethyl)-1H-indole-2-propanoic acid]
  Effect on Pang(ϕ): ↑
  % phase separated z-score: 0.67
  Pordered z-score: 2.10

## CCCCCCCCCCCCCCCCOC[C@H](COP(=O)([O-])OCC[N+](C)(C)C)OC(=O)NC [Methylcarbamyl PAF C-16]
  Effect on Pang(ϕ): ↑
  % phase separated z-score: −0.58
  Pordered z-score: 2.20

## CCCCCCCCCCCCC/C=C/[C@@H](O)[C@H](CO)N(C)C [N,N-Dimethylsphingosine (d18:1)]
  Effect on % phase separated vesicles: ↓
  % phase separated z-score: −2.09
  Pordered z-score: −0.70

## CCCCCCCCCCCCCCCC(=O)NCCS(=O)(=O)O [N-Palmitoyl Taurine]
  Effect on % phase separated vesicles: ↑
  % phase separated z-score: 2.19
  Pordered z-score: 1.66

## CCCCCCCCCCCCCCCCCC(=O)NCCS(=O)(=O)O [N-Stearoyl Taurine]
  Effect on % phase separated vesicles: ↑
  Effect on Pang(ϕ): ↑
  % phase separated z-score: 3.21
  Pordered z-score: 2.89

## C=C(C)[C@@H]1CCC(C)=C[C@H]1c1c(C)cc(O)cc1O [O-1602, 5-methyl-4-[(1R,6R)-3-methyl-6-(1-methylethenyl)-2-cyclohexen-1-yl] -1,3-benzenediol]
  Effect on % phase separated vesicles: ↓
  % phase separated z-score: −2.10
  Pordered z-score: −0.27

## CCCCCCCC/C=C\CCCCCCCC(=O)N[C@H](CO)c1ccc(O)cc1 [OMDM-1, (S)-N-(1-(4-hydroxyphenyl)-2-hydroxyethyl) oleamide]
  Effect on % phase separated vesicles: ↓
  % phase separated z-score: −2.62
  Pordered z-score: −0.54

## CCCCCCCCCCCCCCCCOC[C@H](COP(=O)([O-])OCC[N+](C)(C)C)OC(C)=O [PAF C-16, 1-O-hexadecyl-2-O-acetyl-sn-glyceryl-3-phosphorylcholine]
  Effect on % phase separated vesicles: ↓
  % phase separated z-score: −2.00
  Pordered z-score: 1.87

## Br.CCSC(=N)N [S-ethyl Isothiourea (hydrobromide)]
  Effect on Pang(ϕ): ↑
  % phase separated z-score: 0.85
  Pordered z-score: 2.57

## CN(C)S(=O)(=O)c1ccc2c(c1)C(=Cc1cc3c([nH]1)CCCC3)C(=O)N2 [SU6656, 2,3-dihydro-N,N-dimethyl-2-oxo-3-[(4,5,6,7-tetrahydro-1H-indol-2-yl)methylene]-1H-indole-5-sulfonamide]
  Effect on % phase separated vesicles: ↓
  % phase separated z-score: −2.06
  Pordered z-score: −0.42

## CCCCCCCCCCCCCCOc1ccc(C(=O)O)o1 [TOFA, 5-(Tetradecyloxy)-2-furancarboxylic acid]
  Effect on % phase separated vesicles: ↓
  % phase separated z-score: −3.41
  Pordered z-score: −1.20

## O=c1[nH]c(-c2ccc(C(F)(F)F)cc2)nc2c1CSCC2 [XAV939, 3,5,7,8-tetrahydro-2-[4-(trifluoromethyl)phenyl]-4H-thiopyrano[4,3-d]pyrimidin-4-one]
  Effect on % phase separated vesicles: ↑
  % phase separated z-score: 2.33
  Pordered z-score: 0.58

## COc1ccc(/C=C\c2cc(OC)cc(OC)c2)cc1 [cis-trismethoxy Resveratrol]
  Effect on % phase separated vesicles: ↓
  % phase separated z-score: −2.45
  Pordered z-score: −1.61

## CCCCCCCCCCCCCCCCSP(=O)([O-])OCC[N+](C)(C)C [thio-Miltefosine]
  Effect on % phase separated vesicles: ↑
  Effect on Pang(ϕ): ↑
  % phase separated z-score: 2.12
  Pordered z-score: 2.78

## (−)-Epigallocatechin Gallate
  Effect on % phase separated vesicles: ↑
  % phase separated z-score: 4.33
  Pordered z-score: 1.42
